# According to patent US11547697B2, “Heterocyclic compounds and uses thereof” (MILLENNIUM PHARMACEUTICALS, INC., priority 2009, dated 2023):
# Read-outs that look alike come from different tables or passages of the source.
# Experiments:
# [1] = system: tumor cells with a PI3Kα mutation (e.g., MDA-MB-361 and T47D); assay: Proliferation of tumor cells with PI3Kα mutation; format: cell-based; settings: Homo sapiens
# p110β/p85α = p110β/p85α (Homo sapiens (Human), UniProt P42338); assay: PI 3-Kinase (human) HTRF assay, p110β/p85α; format: biochemical
# Sequence of p110β/p85α (P42338 whole entry): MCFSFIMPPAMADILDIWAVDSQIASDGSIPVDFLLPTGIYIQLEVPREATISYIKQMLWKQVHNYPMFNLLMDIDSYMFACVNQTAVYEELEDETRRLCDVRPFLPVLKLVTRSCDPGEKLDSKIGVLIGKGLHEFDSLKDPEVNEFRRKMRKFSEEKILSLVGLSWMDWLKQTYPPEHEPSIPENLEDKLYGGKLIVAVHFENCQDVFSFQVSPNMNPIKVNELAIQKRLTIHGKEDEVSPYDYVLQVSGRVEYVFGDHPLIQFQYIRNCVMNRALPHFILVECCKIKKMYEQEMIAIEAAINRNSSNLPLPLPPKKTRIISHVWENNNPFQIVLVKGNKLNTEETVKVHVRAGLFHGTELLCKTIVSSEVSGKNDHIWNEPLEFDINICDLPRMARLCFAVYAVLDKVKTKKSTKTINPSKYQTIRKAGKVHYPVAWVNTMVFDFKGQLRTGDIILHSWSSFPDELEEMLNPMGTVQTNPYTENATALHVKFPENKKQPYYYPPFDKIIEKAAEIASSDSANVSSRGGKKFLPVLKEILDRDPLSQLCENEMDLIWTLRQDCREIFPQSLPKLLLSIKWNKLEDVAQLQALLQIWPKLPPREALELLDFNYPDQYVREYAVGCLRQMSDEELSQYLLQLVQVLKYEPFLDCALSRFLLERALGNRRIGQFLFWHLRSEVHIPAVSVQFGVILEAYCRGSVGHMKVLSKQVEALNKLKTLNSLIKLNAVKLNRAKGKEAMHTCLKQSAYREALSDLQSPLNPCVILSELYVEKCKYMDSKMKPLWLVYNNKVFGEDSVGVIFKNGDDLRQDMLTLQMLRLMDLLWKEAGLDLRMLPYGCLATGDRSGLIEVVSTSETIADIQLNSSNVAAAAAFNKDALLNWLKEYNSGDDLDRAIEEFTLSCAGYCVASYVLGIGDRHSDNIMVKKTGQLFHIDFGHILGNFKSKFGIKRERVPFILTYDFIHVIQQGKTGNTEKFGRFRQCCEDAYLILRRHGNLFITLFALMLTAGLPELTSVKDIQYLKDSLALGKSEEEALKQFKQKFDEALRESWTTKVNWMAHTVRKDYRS
# Sequence of p110β/p85α (P27986 whole entry partner): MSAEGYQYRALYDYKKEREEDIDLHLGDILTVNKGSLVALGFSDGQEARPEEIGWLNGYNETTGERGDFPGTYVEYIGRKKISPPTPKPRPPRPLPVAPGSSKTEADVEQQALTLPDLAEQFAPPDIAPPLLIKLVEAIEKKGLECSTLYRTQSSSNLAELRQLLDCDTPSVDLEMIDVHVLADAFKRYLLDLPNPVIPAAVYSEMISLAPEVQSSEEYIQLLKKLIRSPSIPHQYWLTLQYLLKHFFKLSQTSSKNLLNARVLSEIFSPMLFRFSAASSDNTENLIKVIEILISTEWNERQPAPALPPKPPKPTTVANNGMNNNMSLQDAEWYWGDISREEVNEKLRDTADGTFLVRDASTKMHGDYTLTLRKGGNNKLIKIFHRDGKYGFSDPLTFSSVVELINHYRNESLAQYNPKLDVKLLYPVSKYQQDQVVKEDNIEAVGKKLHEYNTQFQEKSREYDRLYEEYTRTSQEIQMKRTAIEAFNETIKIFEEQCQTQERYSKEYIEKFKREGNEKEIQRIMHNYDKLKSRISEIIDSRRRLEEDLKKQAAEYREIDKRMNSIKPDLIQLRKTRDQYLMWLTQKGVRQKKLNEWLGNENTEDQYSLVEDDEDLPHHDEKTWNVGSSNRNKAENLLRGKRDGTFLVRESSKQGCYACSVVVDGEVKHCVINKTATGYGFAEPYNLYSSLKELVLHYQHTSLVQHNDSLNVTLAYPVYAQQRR
# Protocol: An exemplary system is PI 3-Kinase (human) HTRF™ Assay from Upstate. […] Briefly, the assay is a time resolved FRET assay that indirectly measures PIP3 product formed by the activity of a PI3-K. The kinase reaction is performed in a microtitre plate (e.g., a 384 well microtitre plate). The total reaction volume is approximately 20 ul per well. In the first step, each well receives 2 ul of test compound in 20% dimethylsulphoxide resulting in a 2% DMSO final concentration. Next, approximately 14.5 ul of a kinase/PIP2 mixture (diluted in 1× reaction buffer) is added per well for a final concentration of 0.25-0.3 ug/ml kinase and 10 μM PIP2. The plate is sealed and incubated for 15 minutes at room temperature. To start the reaction, 3.5 ul of ATP (diluted in 1× reaction buffer) is added per well for a final concentration of 10 μM ATP. The plate is sealed and incubated for 1 hour at room temperature. The reaction is stopped by adding 5 ul of Stop Solution per well and then 5 ul of Detection Mix is added per well. The plate is sealed, incubated for 1 hour at room temperature, and then read on an appropriate plate reader. Data is analyzed and IC50s are generated using GraphPad Prism 5. […] For PI3K α, β, δ, and γ, the nM concentration of inhibitor to reach IC50 is provided.
# p110γ = p110γ (Homo sapiens (Human), UniProt P48736); assay: PI 3-Kinase (human) HTRF assay, p110γ; format: biochemical
# Sequence of p110γ (P48736 whole entry): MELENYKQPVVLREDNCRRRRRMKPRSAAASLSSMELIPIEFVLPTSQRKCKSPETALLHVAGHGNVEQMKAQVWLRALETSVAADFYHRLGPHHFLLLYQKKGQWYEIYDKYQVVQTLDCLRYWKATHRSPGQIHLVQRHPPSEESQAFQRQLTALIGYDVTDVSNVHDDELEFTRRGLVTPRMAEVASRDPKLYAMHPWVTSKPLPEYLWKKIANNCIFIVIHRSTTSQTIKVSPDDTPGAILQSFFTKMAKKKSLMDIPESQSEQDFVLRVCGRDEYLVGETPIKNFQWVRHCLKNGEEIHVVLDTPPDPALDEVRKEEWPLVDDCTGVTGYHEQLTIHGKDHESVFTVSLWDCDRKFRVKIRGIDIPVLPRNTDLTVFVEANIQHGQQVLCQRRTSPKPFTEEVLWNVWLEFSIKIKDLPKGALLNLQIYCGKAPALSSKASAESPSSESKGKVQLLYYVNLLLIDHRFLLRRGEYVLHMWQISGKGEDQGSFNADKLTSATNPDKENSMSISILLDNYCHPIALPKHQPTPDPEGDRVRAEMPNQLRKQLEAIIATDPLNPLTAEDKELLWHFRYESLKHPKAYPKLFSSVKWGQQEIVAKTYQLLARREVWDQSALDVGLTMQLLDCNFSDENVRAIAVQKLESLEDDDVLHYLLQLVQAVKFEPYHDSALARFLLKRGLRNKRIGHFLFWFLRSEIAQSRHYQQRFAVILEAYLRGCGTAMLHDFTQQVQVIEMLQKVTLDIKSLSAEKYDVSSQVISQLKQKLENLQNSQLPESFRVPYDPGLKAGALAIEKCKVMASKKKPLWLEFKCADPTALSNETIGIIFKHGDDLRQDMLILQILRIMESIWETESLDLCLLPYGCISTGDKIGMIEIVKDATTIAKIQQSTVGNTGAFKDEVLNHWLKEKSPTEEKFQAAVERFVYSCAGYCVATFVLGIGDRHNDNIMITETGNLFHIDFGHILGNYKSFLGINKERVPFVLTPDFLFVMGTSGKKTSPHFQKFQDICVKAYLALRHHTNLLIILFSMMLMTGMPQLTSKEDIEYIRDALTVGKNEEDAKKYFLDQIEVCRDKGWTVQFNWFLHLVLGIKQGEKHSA
# p110α/p85α = p110α/p85α (Homo sapiens (Human), UniProt P42336); assay: PI 3-Kinase (human) HTRF assay, p110α/p85α; format: biochemical
# Sequence of p110α/p85α (P42336 whole entry): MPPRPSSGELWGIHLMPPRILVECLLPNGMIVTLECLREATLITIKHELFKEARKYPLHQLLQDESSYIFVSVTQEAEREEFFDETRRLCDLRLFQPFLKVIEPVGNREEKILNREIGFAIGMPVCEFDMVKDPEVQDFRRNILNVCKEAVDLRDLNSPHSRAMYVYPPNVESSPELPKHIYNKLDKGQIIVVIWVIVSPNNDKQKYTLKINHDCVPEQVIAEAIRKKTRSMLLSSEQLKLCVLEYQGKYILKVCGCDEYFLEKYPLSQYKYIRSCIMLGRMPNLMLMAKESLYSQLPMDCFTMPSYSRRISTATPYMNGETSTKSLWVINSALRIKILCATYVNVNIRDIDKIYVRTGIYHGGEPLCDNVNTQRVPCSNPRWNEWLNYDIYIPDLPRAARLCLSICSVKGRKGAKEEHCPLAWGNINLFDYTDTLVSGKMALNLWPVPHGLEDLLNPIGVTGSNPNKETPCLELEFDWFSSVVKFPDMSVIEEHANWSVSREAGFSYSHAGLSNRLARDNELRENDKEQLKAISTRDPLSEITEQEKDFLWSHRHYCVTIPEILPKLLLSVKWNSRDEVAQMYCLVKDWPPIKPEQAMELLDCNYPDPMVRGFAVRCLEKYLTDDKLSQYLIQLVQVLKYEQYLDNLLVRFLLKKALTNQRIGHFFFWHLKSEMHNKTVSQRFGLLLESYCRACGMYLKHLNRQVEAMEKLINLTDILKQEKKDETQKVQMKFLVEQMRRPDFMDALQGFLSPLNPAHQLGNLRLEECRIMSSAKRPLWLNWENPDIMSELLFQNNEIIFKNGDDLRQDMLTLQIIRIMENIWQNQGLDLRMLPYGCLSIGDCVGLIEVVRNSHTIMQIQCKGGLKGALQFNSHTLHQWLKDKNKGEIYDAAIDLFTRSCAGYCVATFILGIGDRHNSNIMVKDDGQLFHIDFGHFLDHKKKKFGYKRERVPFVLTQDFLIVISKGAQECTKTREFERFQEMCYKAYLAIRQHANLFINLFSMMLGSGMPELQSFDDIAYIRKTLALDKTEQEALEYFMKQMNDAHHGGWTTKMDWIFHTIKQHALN
# Sequence of p110α/p85α (P27986 whole entry partner): as the sequence (P27986 whole entry partner) above
# p110δ/p85α = p110δ/p85α (Homo sapiens (Human), UniProt O00329); assay: PI 3-Kinase (human) HTRF assay, p110δ/p85α; format: biochemical
# Sequence of p110δ/p85α (O00329 whole entry): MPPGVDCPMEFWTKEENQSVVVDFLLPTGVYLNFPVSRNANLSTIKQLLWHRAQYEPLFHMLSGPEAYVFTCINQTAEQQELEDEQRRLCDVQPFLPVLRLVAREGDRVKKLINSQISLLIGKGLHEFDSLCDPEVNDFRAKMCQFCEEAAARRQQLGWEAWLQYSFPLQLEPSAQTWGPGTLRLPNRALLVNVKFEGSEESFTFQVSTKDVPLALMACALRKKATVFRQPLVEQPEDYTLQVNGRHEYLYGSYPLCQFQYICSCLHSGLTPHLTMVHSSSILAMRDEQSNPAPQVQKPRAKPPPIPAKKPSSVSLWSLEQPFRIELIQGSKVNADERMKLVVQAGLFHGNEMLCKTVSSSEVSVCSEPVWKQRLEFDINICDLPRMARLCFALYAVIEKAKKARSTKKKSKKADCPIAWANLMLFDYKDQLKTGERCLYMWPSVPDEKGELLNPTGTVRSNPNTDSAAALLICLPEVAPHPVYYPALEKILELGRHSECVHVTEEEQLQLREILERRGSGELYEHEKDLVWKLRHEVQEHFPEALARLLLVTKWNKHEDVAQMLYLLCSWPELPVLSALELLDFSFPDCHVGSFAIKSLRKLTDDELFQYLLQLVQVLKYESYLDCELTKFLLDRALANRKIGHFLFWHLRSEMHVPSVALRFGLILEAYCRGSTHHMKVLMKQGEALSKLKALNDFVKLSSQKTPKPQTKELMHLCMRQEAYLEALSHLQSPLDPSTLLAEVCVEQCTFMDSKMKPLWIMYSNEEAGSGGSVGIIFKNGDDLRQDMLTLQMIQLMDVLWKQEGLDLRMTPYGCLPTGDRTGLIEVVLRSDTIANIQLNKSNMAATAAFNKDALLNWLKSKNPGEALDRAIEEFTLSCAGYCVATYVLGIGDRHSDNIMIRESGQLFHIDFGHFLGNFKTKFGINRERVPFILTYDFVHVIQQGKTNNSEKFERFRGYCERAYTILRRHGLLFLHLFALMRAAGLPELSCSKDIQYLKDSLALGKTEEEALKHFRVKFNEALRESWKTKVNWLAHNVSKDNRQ
# Sequence of p110δ/p85α (P27986 whole entry partner): as the sequence (P27986 whole entry partner) above
# [2] = T47D cells, read-out: T47D proliferation IC50
# [3] = in vitro, read-out: PI3K β IC50
# [4] = in vitro, read-out: PI3K γ IC50
# [5] = in vitro, read-out: PI3K α IC50
# [6] = in vitro, read-out: PI3K δ IC50
# [7] = PC3, read-out: PC3 proliferation In Vitro IC50
SMILES,"IC50 [1, 2] [nM]",IC50 (p110β/p85α; [3]) [nM],IC50 (p110γ; [4]) [nM],IC50 (p110α/p85α; [5]) [nM],IC50 (p110δ/p85α; [6]) [nM],"IC50 [1, 7] [nM]",IC50 (p110β/p85α; read-out: PI3K β In Vitro IC50) [nM],IC50 (p110γ; read-out: PI3K γ In Vitro IC50) [nM],IC50 (p110α/p85α; read-out: PI3K α In Vitro IC50) [nM],IC50 (p110δ/p85α; read-out: PI3K δ In Vitro IC50) [nM]
Nc1nc2cc(-c3ccc4ncc(C(=O)N5CC[C@H](O)C5)n4c3)ccc2o1 [compound 264],< 1000,< 10000,< 1000,< 100,< 10000,,,,,
Nc1nc2cc(-c3ccc4ncc(C(=O)N5CC[C@@H](O)C5)n4c3)ccc2o1 [compound 265],< 1000,< 10000,< 100,< 100,< 10000,,,,,
Nc1nc2cc(-c3ccc4ncc(C(=O)N5CC(N6CCOCC6)C5)n4c3)ccc2o1 [compound 266],< 10000,< 10000,< 1000,< 100,< 1000,,,,,
C[C@H]1CN(C(=O)C2CN(c3cnc4ccc(-c5ccc6oc(N)nc6c5)cc4n3)C2)CCN1 [compound 268],< 1000,< 10000,< 1000,< 100,< 10000,,,,,
CC(C)[C@H](N)C(=O)N1CCN(c2cnc3ccc(-c4ccc5oc(N)nc5c4)cc3n2)CC1 [compound 269],< 10000,< 1000,< 10000,< 100,< 1000,,,,,
CN1CCN(CCNc2cnc3ccc(-c4ccc5oc(N)nc5c4)cc3n2)CC1 [compound 275],< 1000,< 1000,< 1000,< 100,< 1000,,,,,
Nc1nc2cc(-c3ccc4ncc(N5CCN(C(=O)CN6CCCC6)CC5)nc4c3)ccc2o1 [compound 278],< 1000,< 1000,< 1000,< 100,< 10000,,,,,
CCN(CC)CC(=O)N1CCN(c2cnc3ccc(-c4ccc5oc(N)nc5c4)cc3n2)CC1 [compound 279],< 1000,< 10000,< 10000,< 100,< 10000,,,,,
NC(=O)[C@H]1CCCN1C(=O)C1CN(c2cnc3ccc(-c4ccc5oc(N)nc5c4)cc3n2)C1 [compound 284],< 10000,< 10000,< 1000,< 100,< 10000,,,,,
CC(C)N1CCN(C(=O)C2CN(c3cnc4ccc(-c5ccc6oc(N)nc6c5)cc4n3)C2)CC1 [compound 285],< 1000,< 10000,< 1000,< 100,< 1000,,,,,
Nc1nc2cc(-c3ccc4ncc(N5CCN(C(=O)C6(N)CCC6)CC5)nc4c3)ccc2o1 [compound 286],< 1000,< 1000,< 100,< 100,< 1000,,,,,
Nc1nc2cc(-c3ccc4ncc(N5CC(C(=O)N6CCN(CC7CC7)CC6)C5)nc4c3)ccc2o1 [compound 287],< 10000,< 10000,< 1000,< 100,< 1000,,,,,
Nc1nc2cc(-c3ccc4ncc(C(=O)NCCCN5CCOCC5)n4c3)ccc2o1 [compound 288],< 10000,< 1000,< 10000,< 1000,< 1000,,,,,
Nc1nc2cc(-c3ccc4ncc(C(=O)NCCCN5CCCC5)n4c3)ccc2o1 [compound 293],< 1000,< 1000,< 1000,< 100,< 100,,,,,
Nc1nc2cc(-c3ccc4ncc(N5CCN(C(=O)[C@H](N)CO)CC5)nc4c3)ccc2o1 [compound 299],< 1000,< 1000,< 100,< 100,< 100,,,,,
Nc1nc2cc(-c3ccc4ncc(N5CC(N6CCN(CCO)CC6)C5)nc4c3)ccc2o1 [compound 333],< 1000,< 10000,< 10000,< 100,< 1000,,,,,

SMILES,"IC50 [1, 2] [nM]",IC50 (p110β/p85α; [3]) [nM],IC50 (p110γ; [4]) [nM],IC50 (p110α/p85α; [5]) [nM],IC50 (p110δ/p85α; [6]) [nM],"IC50 [1, 7] [nM]",IC50 (p110β/p85α; read-out: PI3K β In Vitro IC50) [nM],IC50 (p110γ; read-out: PI3K γ In Vitro IC50) [nM],IC50 (p110α/p85α; read-out: PI3K α In Vitro IC50) [nM],IC50 (p110δ/p85α; read-out: PI3K δ In Vitro IC50) [nM]
Nc1nc2cc(-c3ccc4ncc(N5CC(N6CCS(=O)(=O)CC6)C5)nc4c3)ccc2o1 [compound 334],< 1000,< 10000,< 10000,< 100,< 10000,,,,,
Cc1cn(C2CCN(c3cnc4ccc(-c5ccc6oc(N)nc6c5)cc4n3)CC2)cn1 [compound 338],< 10000,< 10000,< 10000,< 100,< 10000,,,,,
C[C@@H]1CN(C2CN(c3cnc4ccc(-c5ccc6oc(N)nc6c5)cc4n3)C2)CCN1 [compound 355],< 1000,< 10000,< 10000,< 100,< 1000,,,,,
Nc1nc2cc(-c3ccn4ncc(-c5ccncc5)c4c3)ccc2o1 [compound 356],< 1000,< 100,< 100,< 100,< 100,,,,,
O=C(c1cnc2ccc(-c3cnc(Cl)c(NS(=O)(=O)c4ccccc4)c3)cn12)N1CCOCC1 [compound 451],,,,,,< 1000,< 1000,< 100,< 100,< 100
O=C(c1cnc2ccc(-c3cnc(Cl)c(NS(=O)(=O)c4ccccc4F)c3)cn12)N1CCOCC1 [compound 452],,,,,,< 10000,< 1000,< 100,< 100,< 100
O=C(c1cnc2ccc(-c3cnc(Cl)c(NS(=O)(=O)c4ccc(F)cc4)c3)cn12)N1CCOCC1 [compound 457],,,,,,< 1000,< 100,< 100,< 100,< 100
O=C(c1cnc2ccc(-c3cnc(Cl)c(NS(=O)(=O)c4cccc(F)c4)c3)cn12)N1CCOCC1 [compound 458],,,,,,< 1000,< 100,< 100,< 100,< 100
COc1ccc(-c2ccc3ncc(C(=O)N4CCOCC4)n3c2)cc1NS(=O)(=O)c1cccnc1 [compound 462],,,,,,< 1000,< 100,< 100,< 100,< 100
COC1CN(C(=O)c2cnc3ccc(-c4ccc5oc(N)nc5c4)cn23)C1 [compound 467],,,,,,< 1000,< 10000,< 100,< 100,< 10000
Nc1nc2cc(-c3ccc4ncc(C(=O)N5CC(N6CC[C@H](O)C6)C5)n4c3)ccc2o1 [compound 469],,,,,,< 10000,< 10000,< 1000,< 100,< 10000
Nc1nc2cc(-c3ccc4ncc(C(=O)N5CC(N6CC[C@@H](O)C6)C5)n4c3)ccc2o1 [compound 470],,,,,,< 10000,< 10000,< 1000,< 100,< 10000
CN(C(=O)c1cnc2ccc(-c3ccc4oc(N)nc4c3)cn12)C1CCOCC1 [compound 472],,,,,,< 10000,< 10000,< 1000,< 100,< 10000
Nc1nc2cc(-c3ccc4ncc(C(=O)N5CC[C@H](n6cccn6)C5)n4c3)ccc2o1 [compound 478],,,,,,< 1000,< 10000,< 1000,< 100,< 1000
C[C@@H]1CN(C2CN(C(=O)c3cnc4ccc(-c5ccc6oc(N)nc6c5)cn34)C2)CCN1C [compound 508],,,,,,< 1000,< 10000,< 10000,< 100,< 1000
C[C@H]1CN(C2CN(C(=O)c3cnc4ccc(-c5ccc6oc(N)nc6c5)cn34)C2)CCN1 [compound 510],,,,,,< 10000,< 10000,< 10000,< 100,< 1000
